According to patent US20060276464A1, “Diarylsulfone sulfonamides and use thereof” (Wyeth, priority 2005, published 2006):
Where two headings read alike, the source gives them in different places.

Target: T1, SFRP-1 (Homo sapiens, UniProt Q8N474)
T1 sequence (Q8N474 32-314): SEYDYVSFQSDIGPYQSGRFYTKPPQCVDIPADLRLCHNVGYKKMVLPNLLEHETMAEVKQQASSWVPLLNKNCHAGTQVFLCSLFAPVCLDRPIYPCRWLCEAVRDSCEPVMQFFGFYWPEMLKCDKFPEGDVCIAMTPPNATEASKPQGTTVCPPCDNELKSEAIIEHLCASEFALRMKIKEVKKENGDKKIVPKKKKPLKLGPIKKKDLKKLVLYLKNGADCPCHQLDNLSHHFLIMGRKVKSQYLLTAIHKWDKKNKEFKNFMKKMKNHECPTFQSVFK
Assay: Cell-based assay for in vitro measurement of SFRP-1/SARP2 antagonist activity (U2OS cells co-transfected with 16x TCF-tk-Luciferase reporter, Wnt and hSFRP-1);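 note: U2OS cells co-transfected with a TCF-tk luciferase reporter, a Wnt vector, hSFRP-1 or empty vector and CMV-βgal, luciferase luminescence read in cell lysates alongside βgal activity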
Details: U2OS

[1] = read-out: Fold Induction with SFRP-1, Conc 15 μM, with SFRP-1, fold induction over SFRP-1 control, single dose
[2] = read-out: Fold Induction without SFRP-1, Conc 15 μM, without SFRP-1, single dose
[3] = read-out: Fold Induction with SFRP-1, Conc 20 μM, with SFRP-1, fold induction over SFRP-1 control, single dose
[4] = read-out: Fold Induction without SFRP-1, Conc 20 μM, without SFRP-1, single dose
[5] = read-out: Fold Induction with SFRP-1, Conc 15 μM, single dose, luciferase reporter, fold induction over SFRP-1 control, cells with SFRP-1
[6] = read-out: Fold Induction without SFRP-1, Conc 15 μM, single dose, luciferase reporter, cells without SFRP-1 (specificity control)

| fold induction at 15 µM [1] | fold induction at 15 µM [2] | other results | Structure (SMILES) |
| --- | --- | --- | --- |
| 2.3 | 0.8 | – | Cc1ccc(S(=O)(=O)c2ccc(Cl)cc2)cc1S(=O)(=O)NCCCn1ccnc1 [Example 292, 5-[(4-chlorophenyl)sulfonyl]-N-[3-(1H-imidazol-1-yl)propyl]-2-methylbenzenesulfonamide] |
| 2 | 1.1 | – | CCc1ccc(S(=O)(=O)c2ccccc2)cc1S(=O)(=O)N1CCN(CC(=O)N2CCCC2)CC1 [Example 285, 1-{[2-ethyl-5-(phenylsulfonyl)phenyl]sulfonyl}-4-(2-oxo-2-pyrrolidin-1-ylethyl)piperazine] |
| 2.4 | 1.6 | – | Cc1ccc(S(=O)(=O)c2ccccc2)cc1S(=O)(=O)N1CCN(CCN2CCCC2)CC1 [Example 282, 1-{[2-methyl-5-(phenylsulfonyl)phenyl]sulfonyl}-4-(2-pyrrolidin-1-ylethyl)piperazine] |
| 1.4 | 1.1 | – | COc1ccccc1CCNS(=O)(=O)c1cc(S(=O)(=O)c2ccccc2)ccc1OC [Example 151, 2-methoxy-N-[2-(2-methoxyphenyl)ethyl]-5-(phenylsulfonyl)benzenesulfonamide] |
| 1.2 | 0.9 | – | COc1ccc(S(=O)(=O)c2ccccc2)cc1S(=O)(=O)NCCc1ccncc1 [Example 235, 2-methoxy-5-(phenylsulfonyl)-N-(2-pyridin-4-ylethyl)benzenesulfonamide] |
| 2.2 | 1.3 | – | Cc1ccc(S(=O)(=O)c2cccc(C#N)c2)cc1S(=O)(=O)NCCc1ccccn1 [Example 409, 5-[(3-cyanophenyl)sulfonyl]-2-methyl-N-(2-pyridin-2-ylethyl)benzenesulfonamide] |
| – | – | fold induction at 20 µM [3]: 2.6; fold induction at 20 µM [4]: 1.1 | Cc1ccc(S(=O)(=O)c2ccc(Cl)cc2)cc1S(=O)(=O)NC1Cc2ccccc2C1 [Example 255, 5-[(4-chlorophenyl)sulfonyl]-N-2,3-dihydro-1H-inden-2-yl-2-methylbenzenesulfonamide] |
| – | – | fold induction at 15 µM [5]: 1.5; fold induction at 15 µM [6]: 1.3 | CCCc1ccc(S(=O)(=O)c2ccc(F)cc2)cc1S(N)(=O)=O [Example 566, 5-[(4-Fluorophenyl)sulfonyl]-2-propylbenzenesulfonamide] |
| 1.2 | 1 | – | Cc1ccc(S(=O)(=O)c2ccccc2)cc1S(=O)(=O)NC(C)(C)C [Example 395, N-(tert-butyl)-2-methyl-5-(phenylsulfonyl)benzenesulfonamide] |
| 1.5 | 1.2 | – | CCOc1cc(CCNS(=O)(=O)c2cc(S(=O)(=O)c3ccccc3)ccc2OC)ccc1OC [Example 157, N-[2-(3-ethoxy-4-methoxyphenyl)ethyl]-2-methoxy-5-(phenylsulfonyl)benzenesulfonamide] |
| 1.4 | 1.1 | – | CC(C)c1ccc(S(=O)(=O)c2ccc(F)cc2)cc1S(=O)(=O)NC[C@@H](C)c1ccccc1 [Example 444, 5-[(4-fluorophenyl)sulfonyl]-2-isopropyl-N-[(2S)-2-phenylpropyl]benzenesulfonamide] |
| 1.5 | 1.1 | – | Cc1cc(C)c(S(=O)(=O)c2ccccc2)cc1S(=O)(=O)NCC(O)c1ccccc1 (centres unmarked) [Example 389, N-(2-hydroxy-2-phenylethyl)-2,4-dimethyl-5-(phenylsulfonyl)benzenesulfonamide] |
| 1.9 | 1.5 | – | Cc1ccc(S(=O)(=O)c2ccccc2)cc1S(=O)(=O)N[C@H]1CCCC[C@@H]1O (relative stereo) [Example 412, N-[(1S*,2S*)-2-hydroxycyclohexyl]-2-methyl-5-(phenylsulfonyl)benzenesulfonamide] |
| 1.4 | 0.9 | – | COCCNS(=O)(=O)c1cc(S(=O)(=O)c2ccccc2)ccc1OC [Example 240, 2-methoxy-N-(2-methoxyethyl)-5-(phenylsulfonyl)benzenesulfonamide] |
| – | – | fold induction at 30 µM (read-out: Fold Induction with SFRP-1, Conc 30 μM, with SFRP-1, fold induction over SFRP-1 control, single dose): 1.4; fold induction at 30 µM (read-out: Fold Induction without SFRP-1, Conc 30 μM, without SFRP-1, single dose): 1.8 | O=S(=O)(NCCCN1CCCC1)c1cccc(S(=O)(=O)c2ccccc2)c1 [Example 200, 3-(phenylsulfonyl)-N-(3-pyrrolidin-1-ylpropyl)benzenesulfonamide] |
| – | – | fold induction at 15 µM [5]: 1.6; fold induction at 15 µM [6]: 0.8 | Cc1ccc(S(=O)(=O)c2ccccc2)cc1S(=O)(=O)NC1CCN(C(=O)Oc2ccc(F)cc2)CC1 [Example 500, 4-fluorophenyl 4-({[2-methyl-5-(phenylsulfonyl)phenyl]sulfonyl}amino)piperidine-1-carboxylate] |
| 2.5 | 1.2 | – | Cc1cc(S(=O)(=O)c2ccccc2)cc(S(=O)(=O)NCCCn2ccnc2)c1C [Example 348, N-[3-(1H-imidazol-1-yl)propyl]-2,3-dimethyl-5-(phenylsulfonyl)benzenesulfonamide] |
| 2.1 | 1.1 | – | Cc1ccc(S(=O)(=O)c2ccc(C(C)(C)O)cc2)cc1S(=O)(=O)NCCc1ccccn1 [Example 405, 5-{[4-(1-hydroxy-1-methylethyl)phenyl]sulfonyl}-2-methyl-N-(2-pyridin-2-ylethyl)benzenesulfonamide] |
| 3.3 | 0.7 | – | CCc1ccc(S(=O)(=O)c2ccccc2)cc1S(=O)(=O)NCCc1cccc(OC)c1 [Example 143, 2-ethyl-N-[2-(3-methoxyphenyl)ethyl]-5-(phenylsulfonyl)benzenesulfonamide] |
| 1.6 | 1.1 | – | Cc1ccc(S(=O)(=O)c2ccccc2)cc1S(=O)(=O)NCC(F)(F)F [Example 401, 2-methyl-5-(phenylsulfonyl)-N-(2,2,2-trifluoroethyl)benzenesulfonamide] |
| 1.8 | 1.3 | – | Cc1cc(S(=O)(=O)c2ccccc2)cc(S(=O)(=O)NC2CCOCC2)c1C [Example 350, 2,3-dimethyl-5-(phenylsulfonyl)-N-(tetrahydro-2H-pyran-4-yl)benzenesulfonamide] |
| 1.2 | 1.1 | – | CCC(CC)NS(=O)(=O)c1cc(S(=O)(=O)c2ccccc2)ccc1C [Example 397, N-(1-ethylpropyl)-2-methyl-5-(phenylsulfonyl)benzenesulfonamide] |
| 3.2 | 1.3 | – | CCc1ccc(S(=O)(=O)c2ccccc2)cc1S(=O)(=O)NCCc1ccccc1OC [Example 142, 2-ethyl-N-[2-(2-methoxyphenyl)ethyl]-5-(phenylsulfonyl)benzenesulfonamide] |
| 1.2 | 1 | – | Cc1ccc(S(=O)(=O)c2ccccc2)cc1S(=O)(=O)NC(=O)[C@@H](N)Cc1ccccc1 [Example 364, N-{[2-methyl-5-(phenylsulfonyl)phenyl]sulfonyl}-L-phenylalaninamide] |
| – | – | fold induction at 20 µM [3]: 1.4; fold induction at 20 µM [4]: 0.9 | Cc1ccc(S(=O)(=O)c2ccc(F)cc2)cc1S(=O)(=O)N[C@H]1C[C@@H]1c1ccccc1 [Example 250, 5-[(4-fluorophenyl)sulfonyl]-2-methyl-N-[(1S,2R)-2-phenylcyclopropyl]benzenesulfonamide] |
